# Experiments:
# EL4 = EL4 cell viability (CCK-8) with doxorubicin; format: cell-based, mouse; details: 300 uM with doxorubicin 20 nM; 24 hours; p<0.05
# Description: In order to investigate the cell viability by the combined administration of doxorubicin and the peptide of Example 1 compared to the group administered with only doxorubicin, which is an anticancer chemotherapeutic agent, experiments described below were conducted. 8×10^3 Cells of the mouse lymphoma cell line EL4 (ATCC) were seeded in 96 wells, which then were treated with doxorubicin 20 nM and peptide 300 uM of Example 1 for each condition. After 24 hours of culturing, the cell viability of the EL4 cells was measured by CCK-8 addition. FIG. 11 is a graph illustrating the changes in EL4 cell viability over culturing time in an anticancer effect evaluation test. In FIG. 11, the x-axis represents culturing time and the y-axis represents cell viability (%).
# MDA-MB-231 = MDA-MB-231 cell viability (CCK-8) in NK92 co-culture with anti-PD-L1; format: cell-based, human; details: 300 uM with 10 ug/ml anti-PD-L1, 24/48/72 hours of co-culturing
# Description: The experiment described below was performed to evaluate the tumor cell proliferation inhibitory effect of the combination treatment of the peptide of Example 1 and the anti-PD-L1, which is an immune checkpoint inhibitor. First, 5×10^3 cells of a human prostate cancer cell line PC3, 5×10^3 cells of a human lung cancer cell line A549 (Korean Cell Line Bank), and 1×10^4 cells of a human triple negative breast cancer cell line MDA-MB-231 (ATCC) were seeded in 96 wells and stabilized by culturing overnight. Then, the seeded cells were treated with 10 ug/ml of the anti-PD-L1 and 300 uM of the peptide of Example 1, for each condition while NK92 cells for 5×10^3 cells of each of the PC3 cell line and the MDA-MB-231 cell line and 2.5×10^3 cells of the A549 cell line were additionally seeded. After 24/48/72 hours of co-culturing (for PC3 and MDA-MB-231) and 24/48 hours of co-culturing (for A549), the NK92 cells were removed by washing, and the cancer cell viability was measured by CCK-8 addition. FIG. 15 is a graph illustrating the changes in PC3 cell viability over culturing time for each test group in an anticancer effect evaluation test. In FIG. 15, the x-axis represents culturing time and the y-axis represents cell viability (%). FIG. 16 is a graph illustrating the changes in A549 cell viability over culturing time for each test group in an anticancer effect evaluation test. […]
# PC3 = PC3 cell viability (CCK-8) in NK92 co-culture with anti-PD-1; format: cell-based, human; details: 100 or 300 uM with 10 μg/ml anti-PD-1, 48/72 hours, P<0.05
# Description: The experiment described below was performed to evaluate the tumor cell proliferation inhibitory effect of the combination treatment of the peptide of Example 1 and anti-PD-1, which is another immune checkpoint inhibitor. First, 5×10^3 cells of a human prostate cancer cell line PC3 were seeded in 96 wells and stabilized by culturing overnight. Next, 5×10^3 NK92 cells were additionally seeded, and the test cells were treated with 10 μg/ml of the anti-PD-1 and 100 or 300 uM of the peptide of Example 1 for each condition. After 48/72 hours of co-culturing, the NK92 cells were removed by washing, and the cell viability of the PC3 cells was measured by CCK-8 addition. FIG. 18 is a graph illustrating changes in PC3 cell viability over culturing time for each test group in an anticancer effect evaluation test. In FIG. 18, the x-axis represents culturing time and the y-axis represents cell viability (%).
# [1] = system: PC3 cells co-cultured with NK92 cells; experiment: PC3/NK92 co-culture: Western blot of LC3II and cleaved PARP; format: cell-based, human; details: 300 uM with 10 μg/ml anti-PD-L1
# Description: In addition, the expression of LC3II, which is an autophagy marker, and the expression of cleaved PARP, which is a cell death marker, were determined by a Western blot test. 1×10^6 PC3 cells were seeded in 6 wells and stabilized by culturing overnight, and the PC3 cells were treated with 10 μg/ml of the anti-PD-L1 and 300 uM of the peptide of Example 1 for each condition while the same number of NK92 cells were additionally seeded. After a predetermined period of treatment, the NK92 cells were removed by washing, and proteins were isolated from the tumor cells to determine LC3II (12 h) and PARP (24 h) expression changes. The expression amounts of each marker were calculated as proportions relative to the control. FIG. 13 is a graph showing the amount of cleaved PARP expression compared to PARP for each test group in the anticancer effect evaluation test in which the x-axis represents test groups and the y-axis represents the amount (%) of cleaved PARP expression compared to the PARP. FIG. 14 is a graph showing the amount of LC3II expression compared to actin for each test group in an anticancer effect evaluation test, in which the x-axis represents test groups, and the y-axis represents the amount (%) of LC3II expression compared to actin in the test group.
# [2] = system: PC3 cells co-cultured with NK92 cells; experiment: PC3/NK92 co-culture: Granzyme B expression by immuno-fluorescence staining; format: cell-based, human; details: 300 uM with 10 μg/ml anti-PD-L1; 12 hours
# Description: The experiment described below was performed to identify the tumor suppression mechanism of the combination treatment of the peptide of Example 1 and anti-PD-L1, which is an immune checkpoint inhibitor. First, prostate cancer cell lines PC3 (ATCC) and NK92 (Immunotherapy Research Center, Korea Research Institute of Bioscience and Biotechnology) were co-cultured. 7.8×10^4 PC3 cells were seeded in 4-well chambers and stabilized by culturing overnight, and the PC3 cells were treated with 10 μg/ml of the anti-PD-L1 and 300 uM of the peptide of Example 1 for each condition while the same number of NK92 cells were additionally seeded. After 12 hours, the NK92 cells were removed by washing, and only tumor cells were fixed. Next, the expression level of Granzyme B was determined through immuno-fluorescence staining. The Granzyme B expression levels were calculated as proportions relative to the control. FIG. 12 is a graph showing a Granzyme B expression level for each test group in an anticancer effect evaluation test, in which the x-axis represents the test group and the y-axis represents the Granzyme B expression level (%) relative to the control group.
substance,measurement,setting,value
"Ac-QLHLD-OH [Example 1, acetyl-QLHLD]",Cancer cell viability compared to the group treated with only doxorubicin,EL4,significant decrease in cancer cell viability
same,Cancer cell viability compared to the group treated with only anti-PD-L1,MDA-MB-231,significant decrease in cancer cell viability
same,Cancer cell viability compared to the checkpoint-inhibitor-only group,PC3,significant decrease
same,LC3II expression compared to the group treated with only anti-PD-L1,"[1]; 12 h, P<0.001",significantly decreased
same,Cleaved PARP expression compared to the group treated with only anti-PD-L1,"[1]; 24 h, P<0.05",significantly increased
same,Granzyme B expression in tumor cells compared to the group treated with only anti-PD-L1,[2],increased significantly
